These results are taken from patent US11174243B2, “Succinate forms and compositions of Bruton's tyrosine kinase inhibitors” (Sunesis Pharmaceuticals, Inc., priority 2016, dated 2021).

The target in data set [1] is T1, ITK (Homo sapiens, UniProt Q08881).
T1 sequence (Q08881 1-620): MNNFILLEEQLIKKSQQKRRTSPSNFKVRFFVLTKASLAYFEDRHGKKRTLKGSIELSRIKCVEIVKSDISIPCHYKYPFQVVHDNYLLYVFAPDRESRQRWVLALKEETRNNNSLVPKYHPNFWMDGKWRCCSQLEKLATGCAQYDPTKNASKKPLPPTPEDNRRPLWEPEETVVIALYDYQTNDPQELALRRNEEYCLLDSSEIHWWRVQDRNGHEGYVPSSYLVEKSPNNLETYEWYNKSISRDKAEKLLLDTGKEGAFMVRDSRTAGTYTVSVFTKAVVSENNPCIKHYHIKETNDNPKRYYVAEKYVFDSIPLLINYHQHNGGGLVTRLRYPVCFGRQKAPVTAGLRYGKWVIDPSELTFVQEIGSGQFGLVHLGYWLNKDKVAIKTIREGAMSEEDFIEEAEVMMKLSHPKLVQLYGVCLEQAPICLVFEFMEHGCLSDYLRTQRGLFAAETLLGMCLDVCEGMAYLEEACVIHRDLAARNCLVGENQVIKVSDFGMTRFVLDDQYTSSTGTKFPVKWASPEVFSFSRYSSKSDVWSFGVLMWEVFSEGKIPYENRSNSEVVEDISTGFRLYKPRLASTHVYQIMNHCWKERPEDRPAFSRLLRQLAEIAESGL
The experiment in a line: In vitro kinase assay, ITK.

Data set [2] concerns the target T2, BTK (Homo sapiens, UniProt Q06187).
T2 construct: from tissue; host or cells: human whole blood
Nature of the data set: Phase 1a single-dose study in humans: BTK inhibition (pBTK) in whole blood. Type of data set: in vivo. Here is the method: The primary endpoint of safety was assessed by monitoring adverse events (AEs), laboratory abnormalities, and cardiac findings (ECG). Secondary endpoints included evaluation of the PK parameters of area under the plasma concentration-time curve (AUC), maximum plasma concentration (Cmax), time of maximum concentration (Tmax), apparent volume of distribution (Vd/F), terminal elimination half-life (t1/2), terminal elimination rate constant (λz), and apparent clearance (Cl/F) as well as the PD parameter of BTK inhibition in whole blood. BTK inhibition was calculated based on phosphorylated BTK (pBTK) and total BTK (totBTK). All postdose blood samples and one predose sample were lysed in the presence of protease and phosphatase inhibitors (PPi); a second predose sample was lysed without PPi to estimate maximum reduction in pBTK attainable. The ratio of predose pBTK/totBTK without PPi was subtracted from each pBTK/totBTK with PPi, and % pBTK vs predose was calculated: […]

Data set [3] addresses T3, CYP3A4 (Homo sapiens, UniProt P08684).
T3 construct: from tissue; host or cells: human subjects in vivo
Nature of the data set: Phase 1a study Stage 3: drug-drug interaction with itraconazole (effect of CYP3A4 inhibition). Type of data set: in vivo. The note with it: for Cmax / AUC(0-t) / AUC(0-inf) / Tmax: plasma, oral; for Cmax / AUC(0-t) / AUC(0-inf): arithmetic mean (CV %); for Tmax: median (min, max). As to the method: Stage 3 evaluated 12 subjects from Cohort 6 who had already received Compound 2 in Stage 2 of the study. Compound 2 at a dose of 25 mg was administered once in the fasted state on Day 1 and subjects were followed for safety, PK and PD evaluations. On Day 4, subjects then received itraconazole (a potent CYP3A4 inhibitor) that was administered at a dose of 200 mg twice daily on Days 4 through 9 in the fed state (except at the morning dose on Day 7). In the morning of Day 7, subjects received itraconazole at a dose of 200 mg followed shortly by administration of Compound 2 at a dose of 25 mg (with both drugs given in the fasted state). Subjects were then followed for safety, PK and PD evaluations on Days 7, 8, 9, and 10. PK results observed following administration of Compound 2 alone on Day 1 were compared with those observed in these same subjects after administration of Compound 2 with itraconazole on Day 7.
The effect of the strong CYP3A4 inhibitor, itraconazole, on the pharmacokinetics of an oral dose of 25 mg Compound 2 was evaluated in 12 subjects (Table 7a). […].

The subject of data set [4] is CD86 expression. The experiment in a line: CpG induced CD86 expression (flow cytometry). Type of data set: cell-based, human. The note with it: 3.2 μM CpG stimulation, 1 μM. Here is the method: Methods: Primary CLL B cells were isolated from the whole blood of consented patients by FICOLL density centrifugation and rosette-sep negative selection. Annexin V and propidium iodide flow cytometry was used to measure patient CLL cell viability and 7AAD was used to measure viability in stromal co-culture. CD40 and CD86 expression was evaluated via flow cytometry subsequent to sustained 3.2 μM CpG stimulation. BCR signaling in primary CLL cells was investigated by immunoblot succeeding 1 hour treatment and following 1 hour or 24 hours of incubation with Compound 1 in XLA cell lines. MTS values were read after 24 hours of drug incubation. ITK inhibition was investigated via immunoblot after stimulation with anti-CD3 and anti-CD28 and incubation with Compound 1 for 1 hour. Compound 1 was used at a concentration of 1 μM in preclinical studies unless otherwise noted.

A short description of data set [5]: Single-dose PK in dog. The data set is classed as in vivo, male beagle dogs. The note with it: beagle, plasma. As to the method: (§1) A series of single-dose PK studies were conducted in rat, dog, and monkey to investigate the plasma PK of Compound 2 following single oral and single intravenous (IV) administration of Compound 2.
A study was conducted to assess the PK of Compound 2 formulated as a suspension or as a solid in capsule. […] Three different dogs were used for each dose level. […] Inter-animal variability in Compound 2 free base plasma systemic exposure was observed after IV and oral administration irrespective of formulation.

Data set [6] is described as follows: Single-dose PK in rat. To be noted: male, Sprague Dawley, plasma. Type of data set: in vivo, male Sprague Dawley rats. Here is the method:
as §1
The PK profile of Compound 2 was evaluated in male Sprague Dawley rats (n=3) following single IV administration of Compound 2 at 1 mg/kg and single oral administration at 5 mg/kg. Following each administration serial blood samples were collected at 0 (predose), 0.08, 0.25, 0.5, 0.75, 2, 5, 10, and 24 hours postdose.

[7] abbreviates: 1 mg/kg, IV, dose 1, 70% PEG400/H2O, free base measured.
Setting [8] is: male, 5 mg/kg, PO, dose not given, 0.1% CMC/0.2% Tween, free base measured.
[9] abbreviates: 1 mg/kg, IV, dose 1, SPEW, free base measured.
Where [10] appears, read: 5 mg/kg, PO, dose 5, 0.1% CMC/0.2% Tween, free base measured.
Setting [11] is: human, Compound 2 25 mg fasted + itraconazole.
[12] abbreviates: human, Compound 2 25 mg fasted, N = 12.

T2 sequence (Q06187 whole entry): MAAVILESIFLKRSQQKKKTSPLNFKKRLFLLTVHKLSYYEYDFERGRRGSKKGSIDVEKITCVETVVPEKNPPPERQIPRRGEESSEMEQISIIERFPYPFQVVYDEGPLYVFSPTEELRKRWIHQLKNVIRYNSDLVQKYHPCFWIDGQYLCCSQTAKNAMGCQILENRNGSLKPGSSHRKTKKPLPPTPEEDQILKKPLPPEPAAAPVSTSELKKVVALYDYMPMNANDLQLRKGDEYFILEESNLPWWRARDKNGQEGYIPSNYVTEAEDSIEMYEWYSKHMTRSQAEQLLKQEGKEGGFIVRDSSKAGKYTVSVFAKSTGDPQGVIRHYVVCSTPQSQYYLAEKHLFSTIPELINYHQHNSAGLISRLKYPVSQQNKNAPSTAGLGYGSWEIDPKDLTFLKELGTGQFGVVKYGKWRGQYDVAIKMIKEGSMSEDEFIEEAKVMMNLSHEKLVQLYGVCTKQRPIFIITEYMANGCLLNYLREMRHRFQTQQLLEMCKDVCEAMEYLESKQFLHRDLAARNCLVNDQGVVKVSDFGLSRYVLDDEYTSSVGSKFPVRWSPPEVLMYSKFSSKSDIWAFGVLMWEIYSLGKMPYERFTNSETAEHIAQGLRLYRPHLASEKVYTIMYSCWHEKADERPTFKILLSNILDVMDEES
T3 sequence (P08684 whole entry): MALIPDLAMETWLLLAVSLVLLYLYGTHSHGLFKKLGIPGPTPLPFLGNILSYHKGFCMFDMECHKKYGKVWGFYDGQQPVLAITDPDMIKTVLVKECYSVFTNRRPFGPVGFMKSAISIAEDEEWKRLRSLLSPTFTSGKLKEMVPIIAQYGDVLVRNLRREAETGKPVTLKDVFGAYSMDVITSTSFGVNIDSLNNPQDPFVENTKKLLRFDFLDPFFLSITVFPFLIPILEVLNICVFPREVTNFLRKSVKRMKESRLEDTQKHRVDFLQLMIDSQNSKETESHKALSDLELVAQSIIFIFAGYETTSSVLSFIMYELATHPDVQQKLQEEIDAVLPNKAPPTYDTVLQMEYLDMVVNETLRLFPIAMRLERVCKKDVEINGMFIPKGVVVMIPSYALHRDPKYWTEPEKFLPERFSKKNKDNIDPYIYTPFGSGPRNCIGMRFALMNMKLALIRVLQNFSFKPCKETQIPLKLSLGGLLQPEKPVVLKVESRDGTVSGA

A word on the IC50: it is the concentration needed to halve the response being measured. High values mean lower potency, low ones higher potency. `NC(=O)[C@H]1CCN(c2ncnc(N)c2F)C[C@@H]1N1CCC[C@@H](Nc2cc(Cl)cc(C(F)(F)F)c2)C1=O` [Compound 1, (3R,3′R,4′S)-1′-(6-amino-5-fluoropyrimidin-4-yl)-3-((3-chloro-5-(trifluoromethyl)phenyl)amino)-2-oxo-[1,3′-bipiperidine]-4′-carboxamide] gave a concentration for half-maximal inhibition (IC50) in data set [1] of 24 nM. Besides, the “% BTK inhibition” value in data set [2] (Compound 1 plasma concentrations lower or close to 100 ng/mL) is recorded as at most 75%. The “inhibition of pBTK” value in data set [2] (Compound 1 plasma concentrations ≥200 ng/mL) is at least 85%; in data set [2] (all dose levels, rapid, profound and prolonged, FIG. 13), around 100%. Also, the “inhibition (pBTK)” value in data set [2] (plasma concentrations above 1000 ng/mL, most of the subjects, largely around 100%) was above 85%. Further, the “increase of plasma exposure (Cmax) with itraconazole” value in data set [3] (25 mg Compound 2 + itraconazole vs alone) is reported as “about 2 fold”. Also, the CYP3A4 substrate classification entry in data set [3] (≥5-fold increase in exposure in the presence of CYP enzyme inhibition) was “sensitive substrate for CYP3A4”. Moreover, the “decrease of CpG induced CD86 expression” value in data set [4] stood at 15.7%.
By half-life is commonly meant the time needed for the level to fall by half in the phase considered. Lower therefore signals fast loss. The bioavailability is dose-corrected exposure relative to a reference, in per cent. The Vd/F is the apparent distribution volume after extravascular dosing. Regarding `NC(=O)[C@H]1CCN(c2ncnc(N)c2F)C[C@@H]1N1CCC[C@@H](Nc2cc(Cl)cc(C(F)(F)F)c2)C1=O` [Compound 2], the AUC(0-inf) in data set [5] (setting [7]) stood at 1080 ng·h/mL; in data set [5] (setting [8]) it was 3520 ng·h/mL; in data set [6] (setting [9]) it was 16100 ng·h/mL; in data set [6] (setting [10]) it was 14600 ng·h/mL; in data set [3] (human, Compound 2 25 mg fasted + itraconazole, N = 11), 32200 ng·h/mL; in data set [3] (human, Compound 2 25 mg fasted), 4620 ng·h/mL. The values for the C0 in data set [5] (setting [7]) and in data set [6] (setting [9]) were 1920 ng/mL and 4370 ng/mL, respectively. The half-life in data set [5] (setting [7]) was 0.8 h; in data set [6] (setting [9]), 4 h; in data set [3] (human, in vivo, 25 mg) it was 6.9 h. The Cmax in data set [5] (setting [8]) was determined as 2970 ng/mL; in data set [6] (setting [10]), 1780 ng/mL; in data set [3] (human, Compound 2 25 mg fasted + itraconazole, N = 12), 1680 ng/mL; in data set [3] (setting [12]), 873 ng/mL. The Tmax was 0.8 h in data set [5] (setting [8]), 2.6 h in data set [6] (setting [10]), 1.5 h in data set [3] (setting [11]) and 1 h in data set [3] (setting [12]). Besides, the bioavailability in data set [5] (male, 5 mg/kg, PO, dose not given, 0.1% CMC/0.2% Tween, read-out: % F (oral bioavailability)) was 65%; in data set [6] (5 mg/kg, PO, dose 5, 0.1% CMC/0.2% Tween, read-out: % F (oral bioavailability)), 18%. In addition, the CL/F in data set [3] (human, in vivo, 25 mg) is 6.34 (41.6) L/hr. In addition, the Vd/F in data set [3] (human, in vivo, 25 mg) came to 57.5 L. The AUC(0-t) in data set [3] (setting [11]) came out at 28000 ng·h/mL; in data set [3] (human, Compound 2 25 mg fasted), 4420 ng·h/mL.
